# Experimental data taken from patent publication US20230167149A1, “CD33 LIGANDS SUITABLE FOR INCORPORATION INTO CARRIERS” (GLYCOMIMETICS, INC., priority 2020, published 2023).
# Biological target: T1, CD33 (Homo sapiens, UniProt P20138)
# T1 construct: purchased BioLegend 750106
# Experiment: CD33 competitive binding assay
# Conditions: immobilized CD33-Fc; competition with Neu5Acα2-3Galβ1-3GalNAc-PAA-biotin; TMB readout at 450 nm
# Protocol: The assay to screen for and characterize glycomimetic ligands of CD33 is a competitive binding assay, which allows the determination of IC50 values. CD33-Fc (BioLegend catalog item 750106) was immobilized in 96 well microtiter plates by incubation at 4° C. overnight. To reduce non-specific binding, bovine serum albumin was added to each well and incubated at room temperature for 2 hours. The plate was washed and serial dilutions of the test compounds were added to the wells in the presence of biotinylated polyacrylamide conjugated with Neu5Acα2-3Galβ1-3GalNAc-PAA-biotin (GlycoTech catalog item 01-088). After incubation at room temperature for 2 hours and washing, streptavidin/horseradish peroxidase was added to each well and incubated at room temperature for 30 minutes followed by an additional wash.
# To determine the amount of glycopolymer bound to the immobilized CD33, the peroxidase substrate 3.3′.5.5′ tetramethylbenzidine (TMB) was added. After 5 minutes, the enzyme reaction was stopped by the addition of H3PO4 and the absorbance of light at a wavelength of 450 nm was determined. The concentration of test compound required to inhibit binding by 50% was determined and reported as the IC50 value.
# T1 sequence (P20138 18-364): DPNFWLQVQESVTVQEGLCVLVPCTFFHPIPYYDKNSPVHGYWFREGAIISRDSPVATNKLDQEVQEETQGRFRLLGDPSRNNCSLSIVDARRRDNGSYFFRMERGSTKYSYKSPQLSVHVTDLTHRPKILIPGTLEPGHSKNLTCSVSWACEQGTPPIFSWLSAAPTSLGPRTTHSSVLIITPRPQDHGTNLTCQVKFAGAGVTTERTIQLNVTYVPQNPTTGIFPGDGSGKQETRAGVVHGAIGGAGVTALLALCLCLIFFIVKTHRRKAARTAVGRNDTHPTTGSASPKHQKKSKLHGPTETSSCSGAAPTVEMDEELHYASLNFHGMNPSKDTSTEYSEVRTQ
structure (smiles),measurement,value
CCCNC(=O)COC1C[C@](OCCCn2cc(-c3ccccc3)nn2)(C(=O)O)OC([C@H](O)[C@H](O)CNC(=O)c2cc(C)c(O)c(C)c2)[C@@H]1NC(=O)Cn1cc(C2CCCCC2)nn1 (stereo partly shown) [Compound 193],IC50,40 µM
